In data set [1] the test system is Hepatotoxicity.
Data set [2] has as its system Hepatotoxicity. The source holds these as a separate data set.
The test system of data set [3] is Hepatotoxicity. The source holds these as a separate data set.
For data set [4], the system named is Hepatotoxicity. This is another data set of the same source.
Data set [5] relates to Hepatotoxicity. This is another data set of the same source.
In data set [6] the test system is Hepatotoxicity. The source holds these as a separate data set.
For data set [7], the system named is Hepatotoxicity. The source holds these as a separate data set.
The subject of data set [8] is Hepatotoxicity. The source holds these as a separate data set.
Data set [9] concerns Hepatotoxicity. This is another data set of the same source.
Data set [10] relates to Hepatotoxicity. The source holds these as a separate data set.
The test system of data set [11] is Hepatotoxicity. The source holds these as a separate data set.
The test system of data set [12] is Hepatotoxicity. The source holds these as a separate data set.
In data set [13] the test system is Hepatotoxicity. The source holds these as a separate data set.
For data set [14], the system named is Hepatotoxicity. The source holds these as a separate data set.
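Throughout, for HepSE Combined Scores: combined hepatic side effect score as listed in the training data of the Drug Induced Liver Injury Prediction System (DILIps).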
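Throughout, for HepSE bilirubinemia: bilirubinemia hepatic side effect score drawn from the DILIps training data, a prediction system for drug-induced liver injury; call rule not given here.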
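Throughout, for HepSE cholecystitis: Cholecystitis-related hepatic side effect score drawn from the DILIps (drug-induced liver injury prediction) training data set; call rule not given here.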
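Throughout, for HepSE cholelithiasis: hepatic side effect score for cholelithiasis, drawn from the DILIps training data for predicting drug-induced liver injury; call rule not given here.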
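Throughout, for HepSE cirrhosis: cirrhosis hepatic side effect score taken from the DILIps (drug-induced liver injury prediction) training set; call rule not given here.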
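Throughout, for HepSE elevated liver function tests: hepatic side effect score for raised liver function tests, as recorded in the DILIps training set used for predicting drug-induced liver injury.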
Throughout, for HepSE hepatic failure: call rule not given here.
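Throughout, for HepSE hepatic necrosis: score of hepatic side effects for hepatic necrosis, drawn from the training data of DILIps, a prediction system for drug-induced liver injury; call rule not given here.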
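Throughout, for HepSE hepatitis: Hepatitis-related hepatic side effect score taken from the training data of DILIps, a prediction system for drug-induced liver injury; call rule not given here.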
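Throughout, for HepSE hepatomegaly: hepatic side effect score for hepatomegaly, taken from the training set of the DILIps drug-induced liver injury prediction system; call rule not given here.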
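Throughout, for HepSE jaundice: Jaundice-related hepatic side-effect score drawn from the training data of the DILIps (drug-induced liver injury prediction system); call rule not given here.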
Throughout, for HepSE liver disease: call rule not given here.
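Throughout, for HepSE liver fatty: hepatic side effect score for fatty liver, taken from the DILIps training set for predicting drug-induced liver injury; call rule not given here.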
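Throughout, for HepSE liver function tests abnormal: hepatic side effect score taken from the DILIps (drug-induced liver injury prediction system) training data, here covering abnormal liver function test findings.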

In the data set with Hepatotoxicity [1], `CC(C)CC(N(C)C)C1(c2ccc(Cl)cc2)CCC1` (stereo not given) [SIBUTRAMINE] displayed a HepSE_liver fatty of 0. For the same molecule, the “HepSE_liver function tests abnormal” value in the data set with Hepatotoxicity [2] is 1. The same molecule registered a HepSE_bilirubinemia with Hepatotoxicity [3] of 0. The molecule further registered a HepSE_hepatitis in the data set on Hepatotoxicity [4] of 0. In addition, in the data set on Hepatotoxicity [5], the HepSE_liver disease is recorded as 0. Also, in the data set with Hepatotoxicity [6], the HepSE_hepatic necrosis turned out to be 0. Besides, the HepSE_cirrhosis in the data set on Hepatotoxicity [7] came to 0. For the same molecule, the HepSE_cholecystitis in the data set with Hepatotoxicity [8] stood at 1. The same molecule displayed a HepSE_hepatic failure in the data set with Hepatotoxicity [9] of 0. The “HepSE_elevated liver function tests” value in the data set on Hepatotoxicity [10] was determined as 0. In the data set on Hepatotoxicity [11], this molecule showed a HepSE_hepatomegaly of 0. This molecule also had a HepSE_cholelithiasis with Hepatotoxicity [12] of 1. Further, the HepSE_jaundice in the data set with Hepatotoxicity [13] is 0. In addition, the “HepSE_Combined Scores” value in the data set on Hepatotoxicity [14] is 3.

Regarding `COc1c(C)c2c(c(O)c1C/C=C(\C)CCC(=O)O)C(=O)OC2` [MYCOPHENOLIC ACID], the HepSE_liver fatty in the data set with Hepatotoxicity [1] was 0. Moreover, the “HepSE_liver function tests abnormal” value with Hepatotoxicity [2] was 1. Besides, in the data set on Hepatotoxicity [3], the HepSE_bilirubinemia came out at 1. In the data set with Hepatotoxicity [4], this molecule had a HepSE_hepatitis of 1. The HepSE_liver disease in the data set with Hepatotoxicity [5] is reported as 1. Also, the HepSE_hepatic necrosis with Hepatotoxicity [6] stood at 0. Also, the HepSE_cirrhosis in the data set on Hepatotoxicity [7] worked out at 0. Besides, the HepSE_cholecystitis with Hepatotoxicity [8] turned out to be 0. Moreover, the HepSE_hepatic failure in the data set with Hepatotoxicity [9] is on record as 0. For the same molecule, the “HepSE_elevated liver function tests” value with Hepatotoxicity [10] is recorded as 0. The molecule also came in with a HepSE_hepatomegaly with Hepatotoxicity [11] of 0. The HepSE_cholelithiasis with Hepatotoxicity [12] was 0. This molecule also displayed a HepSE_jaundice in the data set on Hepatotoxicity [13] of 1. In addition, the “HepSE_Combined Scores” value in the data set on Hepatotoxicity [14] was found to be 5.

As for `NCC(CC(=O)O)c1ccc(Cl)cc1` (stereo not given) [BACLOFEN], the HepSE_liver fatty in the data set with Hepatotoxicity [1] was 0. The “HepSE_liver function tests abnormal” value in the data set on Hepatotoxicity [2] is 0. Further, the HepSE_bilirubinemia in the data set with Hepatotoxicity [3] is reported as 0. In the data set on Hepatotoxicity [4], this molecule gave a HepSE_hepatitis of 0. Also, the HepSE_liver disease in the data set on Hepatotoxicity [5] turned out to be 0. This molecule also displayed a HepSE_hepatic necrosis in the data set with Hepatotoxicity [6] of 0. Moreover, the HepSE_cirrhosis in the data set with Hepatotoxicity [7] is on record as 0. In the data set with Hepatotoxicity [8], this molecule gave a HepSE_cholecystitis of 0. This molecule came in with a HepSE_hepatic failure with Hepatotoxicity [9] of 0. For the same molecule, the “HepSE_elevated liver function tests” value with Hepatotoxicity [10] came to 0. The HepSE_hepatomegaly with Hepatotoxicity [11] was determined as 0. Further, the HepSE_cholelithiasis with Hepatotoxicity [12] was determined as 0. The same molecule showed a HepSE_jaundice with Hepatotoxicity [13] of 0. In addition, the “HepSE_Combined Scores” value with Hepatotoxicity [14] is recorded as 0.

`O=c1[nH]cc(F)c(=O)[nH]1` [FLUOROURACIL] showed a HepSE_liver fatty with Hepatotoxicity [1] of 0. For the same molecule, in the data set with Hepatotoxicity [2], the “HepSE_liver function tests abnormal” value was 0. Also, the HepSE_bilirubinemia in the data set on Hepatotoxicity [3] is recorded as 0. Moreover, the HepSE_hepatitis in the data set on Hepatotoxicity [4] came to 0. In the data set on Hepatotoxicity [5], this molecule came in with a HepSE_liver disease of 0. Further, the HepSE_hepatic necrosis in the data set with Hepatotoxicity [6] came to 0. This molecule gave a HepSE_cirrhosis with Hepatotoxicity [7] of 0. In addition, the HepSE_cholecystitis in the data set with Hepatotoxicity [8] was determined as 0. This molecule also yielded a HepSE_hepatic failure in the data set with Hepatotoxicity [9] of 0. Further, in the data set on Hepatotoxicity [10], the “HepSE_elevated liver function tests” value turned out to be 0. Also, the HepSE_hepatomegaly in the data set on Hepatotoxicity [11] was 0. In the data set on Hepatotoxicity [12], this molecule showed a HepSE_cholelithiasis of 0. Moreover, the HepSE_jaundice with Hepatotoxicity [13] is given as 0. In the data set with Hepatotoxicity [14], the “HepSE_Combined Scores” value is 0.

In the data set with Hepatotoxicity [1], `CC(C)CN(C[C@@H](OP(=O)(O)O)[C@H](Cc1ccccc1)NC(=O)O[C@H]1CCOC1)S(=O)(=O)c1ccc(N)cc1` [FOSAMPRENAVIR] yielded a HepSE_liver fatty of 0. The “HepSE_liver function tests abnormal” value in the data set on Hepatotoxicity [2] is 0. In addition, the HepSE_bilirubinemia in the data set with Hepatotoxicity [3] turned out to be 0. The molecule further displayed a HepSE_hepatitis in the data set on Hepatotoxicity [4] of 0. The same molecule had a HepSE_liver disease with Hepatotoxicity [5] of 0. Further, the HepSE_hepatic necrosis in the data set on Hepatotoxicity [6] is listed as 0. In the data set on Hepatotoxicity [7], this molecule returned a HepSE_cirrhosis of 0. The HepSE_cholecystitis in the data set on Hepatotoxicity [8] was 0. This molecule also registered a HepSE_hepatic failure in the data set with Hepatotoxicity [9] of 0. Also, the “HepSE_elevated liver function tests” value in the data set with Hepatotoxicity [10] is 0. This molecule yielded a HepSE_hepatomegaly with Hepatotoxicity [11] of 0. Also, in the data set on Hepatotoxicity [12], the HepSE_cholelithiasis was 0. The molecule also yielded a HepSE_jaundice with Hepatotoxicity [13] of 0. Further, the “HepSE_Combined Scores” value in the data set with Hepatotoxicity [14] is on record as 0.

`O=C1CCC(N2C(=O)c3ccccc3C2=O)C(=O)N1` (stereo not given) [THALIDOMIDE] displayed a HepSE_liver fatty with Hepatotoxicity [1] of 0. Besides, the “HepSE_liver function tests abnormal” value in the data set with Hepatotoxicity [2] stood at 0. Also, the HepSE_bilirubinemia with Hepatotoxicity [3] was found to be 1. In the data set with Hepatotoxicity [4], this molecule came in with a HepSE_hepatitis of 1. Besides, the HepSE_liver disease in the data set on Hepatotoxicity [5] was 0. For the same molecule, the HepSE_hepatic necrosis in the data set on Hepatotoxicity [6] was 0. The HepSE_cirrhosis with Hepatotoxicity [7] was 0. In addition, in the data set with Hepatotoxicity [8], the HepSE_cholecystitis was 0. In the data set on Hepatotoxicity [9], the HepSE_hepatic failure is on record as 0. Besides, in the data set with Hepatotoxicity [10], the “HepSE_elevated liver function tests” value stood at 0. For the same molecule, the HepSE_hepatomegaly in the data set with Hepatotoxicity [11] is 1. In the data set with Hepatotoxicity [12], this molecule gave a HepSE_cholelithiasis of 0. In addition, in the data set with Hepatotoxicity [13], the HepSE_jaundice was 1. Besides, the “HepSE_Combined Scores” value in the data set with Hepatotoxicity [14] came to 4.

On to `CNCCC(Oc1ccc(C(F)(F)F)cc1)c1ccccc1` (stereo not given) [FLUOXETINE], for which the HepSE_liver fatty in the data set on Hepatotoxicity [1] was 1. Moreover, the “HepSE_liver function tests abnormal” value in the data set with Hepatotoxicity [2] is reported as 1. Besides, the HepSE_bilirubinemia with Hepatotoxicity [3] is 0. This molecule also displayed a HepSE_hepatitis in the data set with Hepatotoxicity [4] of 1. Further, the HepSE_liver disease in the data set with Hepatotoxicity [5] is listed as 0. In addition, the HepSE_hepatic necrosis with Hepatotoxicity [6] turned out to be 0. This molecule yielded a HepSE_cirrhosis in the data set with Hepatotoxicity [7] of 0. Also, the HepSE_cholecystitis with Hepatotoxicity [8] is given as 1. In the data set with Hepatotoxicity [9], the HepSE_hepatic failure stood at 1. Moreover, the “HepSE_elevated liver function tests” value with Hepatotoxicity [10] is given as 0. Further, in the data set on Hepatotoxicity [11], the HepSE_hepatomegaly is recorded as 1. This molecule also had a HepSE_cholelithiasis in the data set with Hepatotoxicity [12] of 1. The HepSE_jaundice in the data set on Hepatotoxicity [13] is 1. In addition, the “HepSE_Combined Scores” value in the data set on Hepatotoxicity [14] was found to be 8.

With `CC(C)NCC(O)COc1cccc2ccccc12` (stereo not given) [PROPRANOLOL], the HepSE_liver fatty in the data set on Hepatotoxicity [1] is on record as 0. In the data set on Hepatotoxicity [2], the “HepSE_liver function tests abnormal” value is reported as 0. Besides, the HepSE_bilirubinemia in the data set with Hepatotoxicity [3] was 0. In the data set with Hepatotoxicity [4], this molecule had a HepSE_hepatitis of 0. Further, in the data set with Hepatotoxicity [5], the HepSE_liver disease is 0. This molecule showed a HepSE_hepatic necrosis with Hepatotoxicity [6] of 0. The HepSE_cirrhosis with Hepatotoxicity [7] amounted to 0. The same molecule registered a HepSE_cholecystitis in the data set with Hepatotoxicity [8] of 0. Also, the HepSE_hepatic failure with Hepatotoxicity [9] came out at 0. Moreover, the “HepSE_elevated liver function tests” value in the data set on Hepatotoxicity [10] was determined as 0. The same molecule had a HepSE_hepatomegaly in the data set on Hepatotoxicity [11] of 0. This molecule also had a HepSE_cholelithiasis in the data set with Hepatotoxicity [12] of 0. For the same molecule, the HepSE_jaundice in the data set with Hepatotoxicity [13] came to 0. Besides, the “HepSE_Combined Scores” value in the data set with Hepatotoxicity [14] is 0.

Take `CN[C@H]1CC[C@@H](c2ccc(Cl)c(Cl)c2)c2ccccc21` [SERTRALINE]: the HepSE_liver fatty in the data set on Hepatotoxicity [1] (Liver) amounted to 0. Also, the “HepSE_liver function tests abnormal” value in the data set with Hepatotoxicity [2] (Liver) turned out to be 0. Besides, the HepSE_bilirubinemia with Hepatotoxicity [3] (Liver) turned out to be 0. In the data set with Hepatotoxicity [4] (Liver), this molecule returned a HepSE_hepatitis of 1. The molecule also returned a HepSE_liver disease with Hepatotoxicity [5] (Liver) of 0. Also, in the data set with Hepatotoxicity [6] (Liver), the HepSE_hepatic necrosis is on record as 0. The molecule also gave a HepSE_cirrhosis in the data set with Hepatotoxicity [7] (Liver) of 0. The HepSE_cholecystitis in the data set with Hepatotoxicity [8] (Liver) stood at 0. Moreover, the HepSE_hepatic failure in the data set on Hepatotoxicity [9] (Liver) is listed as 1. Besides, the “HepSE_elevated liver function tests” value in the data set with Hepatotoxicity [10] (Liver) was determined as 0. This molecule also yielded a HepSE_hepatomegaly with Hepatotoxicity [11] (Liver) of 1. Further, in the data set on Hepatotoxicity [12] (Liver), the HepSE_cholelithiasis was 0. In the data set on Hepatotoxicity [13] (Liver), the HepSE_jaundice was found to be 1. The “HepSE_Combined Scores” value in the data set with Hepatotoxicity [14] (Liver) amounted to 4.

Molecule `FCOC(C(F)(F)F)C(F)(F)F` [SEVOFLURANE] yielded a HepSE_liver fatty with Hepatotoxicity [1] of 0. Also, the “HepSE_liver function tests abnormal” value in the data set on Hepatotoxicity [2] is reported as 0. Besides, the HepSE_bilirubinemia in the data set with Hepatotoxicity [3] is 1. In the data set with Hepatotoxicity [4], this molecule came in with a HepSE_hepatitis of 1. For the same molecule, the HepSE_liver disease with Hepatotoxicity [5] was 0. Further, in the data set with Hepatotoxicity [6], the HepSE_hepatic necrosis is recorded as 1. The molecule further gave a HepSE_cirrhosis in the data set on Hepatotoxicity [7] of 0. In the data set with Hepatotoxicity [8], the HepSE_cholecystitis amounted to 0. In the data set on Hepatotoxicity [9], the HepSE_hepatic failure turned out to be 1. The “HepSE_elevated liver function tests” value with Hepatotoxicity [10] is on record as 0. Further, the HepSE_hepatomegaly in the data set on Hepatotoxicity [11] is listed as 0. The molecule also came in with a HepSE_cholelithiasis in the data set on Hepatotoxicity [12] of 0. In addition, the HepSE_jaundice in the data set on Hepatotoxicity [13] was 1. Besides, the “HepSE_Combined Scores” value in the data set with Hepatotoxicity [14] is on record as 5.
